Patent US20170119742A1, “MEDICAMENT FOR PREVENTING AND/OR TREATING STRESS DISEASES” (ONO PHARMACEUTICAL CO., LTD., priority 2014, published 2017)

Legend:
[1] = tested on: CCK-4 induced stress model; assay: Antianxiety effect (2): freezing time in CCK-4 induced stress model; assay type: in vivo; settings: rat, 1 and 3 mg/kg oral, 2 h before CCK-4 3 mg/kg s.c., Steel test
Experimental: Male LEW/CrlCrlj rats (Charles River Laboratories Japan, Inc., at the time of evaluation: 6 weeks old) were used. In accordance with Rupprecht et al. method (Science, Vol. 325, p. 490-493, 2009), cholecystokinin tetrapeptide (CCK-4) (3 mg/kg) was administered subcutaneously to the rat to induce freezing behavior which was used as an indicator of anxiety. The vehicle (0.5 w/v % methylcellulose 400 cP solution) or the compound of the present invention (1 or 3 mg/kg) was orally administered to the rat. Two hours after the administration, CCK-4 (3 mg/kg) was subcutaneously administered. Two minutes after the administration of CCK-4, the front paws of the rat were placed on a wooden block of height 7 cm. […] Instead of CCK-4, the normal group was administered 1% dimethyl formamide which is the vehicle of CCK-4. Cut-off time was set to 120 seconds. This trial was carried out a total five times at about 2 minute intervals, and the sum of the freezing time was calculated.

brain TSPO = target: T1, brain TSPO (Homo sapiens, UniProt P30536); assay: Brain occupancy using PET in humans (2), different analytical method, Bmax fixed to 1; assay type: in vivo; settings: [11C] PBR28, Emax model with Bmax fixed to 1, mean plasma concentration, SAS, read-out: Ki, blood concentration which can be achieved 50% Bmax (converted)
T1 construct: from tissue; host or cells: living human brain (PET, healthy adults)
T1 sequence (P30536 whole entry): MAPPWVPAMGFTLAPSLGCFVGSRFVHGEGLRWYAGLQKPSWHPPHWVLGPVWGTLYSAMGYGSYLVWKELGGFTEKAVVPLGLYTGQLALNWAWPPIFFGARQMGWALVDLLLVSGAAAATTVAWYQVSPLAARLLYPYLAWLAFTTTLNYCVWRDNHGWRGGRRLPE
Experimental: The data in Biological example 8 were analyzed in a different analytical method. Brain occupancy, relative to the binding potential (BP) before administration, was calculated by calculating the BP of each interest area from the brain radioactivity concentration time change of [^11C] PBR28, nonspecific binding amount and arterial blood plasma radioactivity which was corrected in a non-metabolic rate (n=3 to 4 in each group). Further, the average TSPO occupancy of all interest areas was determined from the Lassen plot that obtained by the horizontal axis of the distribution volume before administration (Vt baseline) and the vertical axis of the value obtained by subtracting the distribution volume after administration from the distribution volume before the administration (Vt baseline−Vt onmed) for each interest area. […] As parameters in this model, Bmax (a maximum number of binding) and Ki (ng/mL) (a blood concentration which can be achieved 50% Bmax) were used. Bmax was fixed to 1 in this analysis, and SAS Version 9.2 (SAS Institute) was used as an analysis software. Parameters and formula of Emax model were shown in the following.
TSPO Occupancy (%)=Bmax×Cave/(Ki+Cave)×100
Cave=Mean plasma concentration (ng/mL)

Ki (brain TSPO): 34.1 nM
Structure (SMILES): COc1cc(Cl)ccc1[C@H]1c2[nH]c3cccc(F)c3c2C2(CC2)CN1C(C)=O [the compound of the present invention, (1S)-2-acetyl-1-(4-chloro-2-methoxyphenyl)-5-fluoro-1,2,3,9-tetrahydrospiro[β-carboline-4,1′-cyclopropane]]
freezing time vs. vehicle control group [1]: shortened this extended freezing time significantly
